Here are results for 10 compounds from ChEMBL document CHEMBL1201862, “PubChem BioAssay data set” (2004).

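Step 1: Grow cells in 96-well plates. Step 2: Expose to compound for 48 hours at 5 concentrations. Step 3: Interpolate endpoints linearly; if unreached, use highest concentration. Here, GI50 denotes the concentration required for 50% inhibition of growth.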 The source made the active and inactive calls. Cut-off read from the data, not from the text of the source: active = GI50 up to about 1.1 µM and inactive = higher. Where only a bound is given, the exact number is not on record here.

Among the test systems are 786-0; A498; ACHN; CCRF-CEM; EKVX; HOP-62; KM12; MDA-MB-231; MDA-MB-435; NCI/ADR-RES; OVCAR-3; OVCAR-4; PC-3; RPMI-8226; RXF 393; SK-MEL-2; SNB-19; SNB-75; T47D; TK-10.
Common to all, as to assay: growth of human tumour cells (NCI), 48 h

Take `O=C(Cn1ccnc1[N+](=O)[O-])N(CCO)CCO`: the GI50 in the experiment with 786-0 was > 250 µM (inactive); in the experiment on A498, > 1250 µM (inactive); in the experiment on ACHN it was > 250 µM (inactive); in the experiment on CCRF-CEM, > 250 µM (inactive); in the experiment with EKVX, > 250 µM (inactive); in the experiment on HOP-62 it was > 250 µM (inactive). Besides, the GI50 in the experiment on KM12, in the experiment on MDA-MB-231, in the experiment on MDA-MB-435, with NCI/ADR-RES, in the experiment with OVCAR-3 and with OVCAR-4 was > 250 µM (inactive) throughout. For the same compound, the GI50 is > 250 µM (inactive) in the experiment with PC-3; 25 µM (inactive) in the experiment on RPMI-8226; > 250 µM (inactive) in the experiment with RXF 393; 191 µM (inactive) in the experiment with SK-MEL-2; > 250 µM (inactive) in the experiment on SNB-19; > 1250 µM (inactive) in the experiment on SNB-75. Besides, the GI50 with T47D and with TK-10 was > 250 µM (inactive) in each case.
Take `CC1=NN2C(=N)/C(=C/c3ccco3)C(=O)N=C2S1`: the GI50 with 786-0, in the experiment with A498, in the experiment on ACHN, in the experiment with CCRF-CEM, in the experiment with EKVX and in the experiment with HOP-62 was > 100 µM (inactive) in each case. For the same compound, the GI50 in the experiment on KM12, in the experiment on MDA-MB-231, in the experiment with MDA-MB-435, in the experiment on NCI/ADR-RES, with OVCAR-3 and in the experiment on OVCAR-4 was > 100 µM (inactive) in each case. The GI50 in the experiment with PC-3, in the experiment with RPMI-8226, in the experiment on RXF 393, with SK-MEL-2, in the experiment with SNB-19 and in the experiment on SNB-75 was > 100 µM (inactive) throughout. Also, the GI50 with T47D and in the experiment on TK-10 was > 100 µM (inactive) throughout.
Consider `O=c1cc(N2CCOCC2)[nH]c(=O)n1-c1ccc(F)cc1`, for which the GI50 in the experiment on 786-0, in the experiment on A498, in the experiment on ACHN, in the experiment on CCRF-CEM, in the experiment on EKVX and in the experiment with HOP-62 was > 100 µM (inactive) in each case. For the same compound, the GI50 with KM12, in the experiment on MDA-MB-231, in the experiment on MDA-MB-435, with NCI/ADR-RES, in the experiment on OVCAR-3 and with OVCAR-4 was > 100 µM (inactive) each time. The GI50 with PC-3, with RPMI-8226, with RXF 393, with SK-MEL-2, in the experiment on SNB-19 and with SNB-75 was > 100 µM (inactive) throughout. In addition, the GI50 in the experiment on T47D and in the experiment on TK-10 was > 100 µM (inactive) each time.
In the case of `COC(=O)/C=C\C(C#N)(C#N)/N=C/c1ccc(Br)s1`, the GI50 with 786-0 is 5.42 µM (inactive); in the experiment on A498, 17.7 µM (inactive); with ACHN, 2.29 µM (inactive); with CCRF-CEM, 0.853 µM (active); in the experiment on EKVX, 12.2 µM (inactive); in the experiment with HOP-62, 17.6 µM (inactive). The GI50 is 16.3 µM (inactive) in the experiment on KM12; 2.18 µM (inactive) in the experiment with MDA-MB-231; 5.56 µM (inactive) in the experiment on MDA-MB-435; 18.6 µM (inactive) in the experiment on NCI/ADR-RES; 11 µM (inactive) in the experiment with OVCAR-3; 6.61 µM (inactive) with OVCAR-4. Further, the GI50 with PC-3 is 13.4 µM (inactive); in the experiment with RPMI-8226, 2.32 µM (inactive); with RXF 393, 2.03 µM (inactive); in the experiment with SK-MEL-2, 17.3 µM (inactive); in the experiment with SNB-19, 14.8 µM (inactive); in the experiment on SNB-75, 15.2 µM (inactive). For the same compound, the results for the GI50 in the experiment with T47D and with TK-10 were 3.52 µM (inactive) and 2.38 µM (inactive), respectively.
With `COC(=O)c1cccc2c1Oc1ccccc1S2`, the GI50 was 42.9 µM (inactive) in the experiment on 786-0; 85.3 µM (inactive) in the experiment with A498; 61.2 µM (inactive) in the experiment with ACHN; 23.4 µM (inactive) in the experiment on CCRF-CEM; 39.4 µM (inactive) in the experiment on EKVX; > 100 µM (inactive) in the experiment on HOP-62. In addition, the GI50 with KM12 was 12 µM (inactive); in the experiment with MDA-MB-231, 38.7 µM (inactive); in the experiment on MDA-MB-435 it was > 100 µM (inactive); in the experiment with NCI/ADR-RES it was 34.4 µM (inactive); in the experiment with OVCAR-3, > 100 µM (inactive); with OVCAR-4, 66.4 µM (inactive). Besides, the GI50 in the experiment on PC-3 is 63.2 µM (inactive); in the experiment with RPMI-8226, 61.1 µM (inactive); with RXF 393, 33 µM (inactive); in the experiment on SK-MEL-2, > 100 µM (inactive); in the experiment on SNB-19, 41.2 µM (inactive); in the experiment with SNB-75, 24.1 µM (inactive). In addition, the GI50 in the experiment on T47D is 32.3 µM (inactive); in the experiment on TK-10 it was > 100 µM (inactive).
As for `CC1(C)OC2C(O)CN3CCS[C@H]3C2O1` (stereo not given in full), the GI50 in the experiment with 786-0, in the experiment on A498, in the experiment on ACHN, with CCRF-CEM, in the experiment on EKVX and with HOP-62 was > 100 µM (inactive) throughout. In addition, the GI50 in the experiment with KM12, in the experiment with MDA-MB-231, with MDA-MB-435, in the experiment with NCI/ADR-RES, in the experiment on OVCAR-3 and with OVCAR-4 was > 100 µM (inactive) each time. Further, the GI50 in the experiment with PC-3, with RPMI-8226, in the experiment on RXF 393, with SK-MEL-2, in the experiment on SNB-19 and in the experiment on SNB-75 was > 100 µM (inactive) throughout. For the same compound, the GI50 in the experiment with T47D and with TK-10 was > 100 µM (inactive) in each case.
For the compound `NC(=O)/C=C/c1c[nH]c2nccnc12`, the GI50 with 786-0 is 3.34 µM (inactive); in the experiment with A498, 2.58 µM (inactive); in the experiment with ACHN, 2.71 µM (inactive); in the experiment on CCRF-CEM, 0.656 µM (active); in the experiment with EKVX it was 3.15 µM (inactive); in the experiment with HOP-62 it was 2.94 µM (inactive). Also, the GI50 is 2.93 µM (inactive) in the experiment on KM12; 3.71 µM (inactive) with MDA-MB-231; 3.59 µM (inactive) in the experiment on MDA-MB-435; 2.89 µM (inactive) in the experiment with NCI/ADR-RES; 2.34 µM (inactive) in the experiment with OVCAR-3; 4.09 µM (inactive) in the experiment with OVCAR-4. Further, the GI50 in the experiment on PC-3 was 2.99 µM (inactive); in the experiment on RPMI-8226, 2.43 µM (inactive); in the experiment on RXF 393, 1.99 µM (inactive); in the experiment on SK-MEL-2, 1.79 µM (inactive); in the experiment on SNB-19, 0.973 µM (active); with SNB-75, 1.78 µM (inactive). In addition, the GI50 in the experiment with T47D is 3.5 µM (inactive); with TK-10 it was 2.43 µM (inactive).
For `CCOP(=O)(C/C=C/Cn1nc(Br)c(=O)[nH]c1=O)OCC`, the GI50 with 786-0, in the experiment with A498, in the experiment on ACHN, in the experiment on CCRF-CEM, in the experiment on EKVX and in the experiment with HOP-62 was > 100 µM (inactive) throughout. Besides, the GI50 in the experiment on KM12, in the experiment on MDA-MB-231, in the experiment with MDA-MB-435, in the experiment on NCI/ADR-RES, with OVCAR-3 and in the experiment on OVCAR-4 was > 100 µM (inactive) each time. Also, the GI50 in the experiment with PC-3, in the experiment with RPMI-8226, with RXF 393, in the experiment with SK-MEL-2, in the experiment with SNB-19 and in the experiment on SNB-75 was > 100 µM (inactive) each time. Also, the GI50 in the experiment on T47D and in the experiment with TK-10 was > 100 µM (inactive) each time.
On to `Cn1c(=S)c2nc(SCCN3C(=O)c4ccccc4C3=O)[nH]c2n(C)c1=O`, for which the GI50 with 786-0 was > 100 µM (inactive); with A498, > 100 µM (inactive); with ACHN, > 100 µM (inactive); in the experiment on CCRF-CEM, 17.3 µM (inactive); in the experiment with EKVX, > 100 µM (inactive); in the experiment with HOP-62, > 100 µM (inactive). The GI50 in the experiment on KM12, with MDA-MB-231, in the experiment with MDA-MB-435, in the experiment on NCI/ADR-RES, in the experiment on OVCAR-3 and with OVCAR-4 was > 100 µM (inactive) in each case. Also, the GI50 with PC-3 was > 100 µM (inactive); with RPMI-8226, 25.5 µM (inactive); in the experiment with RXF 393 it was > 100 µM (inactive); with SK-MEL-2 it was > 100 µM (inactive); with SNB-19 it was > 100 µM (inactive); in the experiment with SNB-75, > 100 µM (inactive). The GI50 with T47D and with TK-10 was > 100 µM (inactive) each time.
As to `N=c1nc2n(cc1F)[C@@H]1O[C@H](CO)[C@@H](O)[C@@H]1O2`, the GI50 with 786-0 is 4.46 µM (inactive); with A498 it was 13.4 µM (inactive); with ACHN, 2.12 µM (inactive); in the experiment on CCRF-CEM, < 0.0122 µM (active); in the experiment on EKVX, > 100 µM (inactive); in the experiment on HOP-62, 2.36 µM (inactive). For the same compound, the GI50 with KM12 was > 100 µM (inactive); with MDA-MB-231 it was > 100 µM (inactive); in the experiment on MDA-MB-435, 0.658 µM (active); in the experiment on NCI/ADR-RES, 9.59 µM (inactive); in the experiment on OVCAR-3 it was 9.1 µM (inactive); with OVCAR-4, > 100 µM (inactive). Also, the GI50 is > 100 µM (inactive) in the experiment with PC-3; 56.9 µM (inactive) in the experiment on RPMI-8226; > 40.7 µM (inactive) in the experiment on RXF 393; > 100 µM (inactive) in the experiment with SK-MEL-2; > 92.9 µM (inactive) in the experiment on SNB-19; > 70.6 µM (inactive) in the experiment with SNB-75. Moreover, the GI50 in the experiment on T47D was 18.4 µM (inactive); in the experiment with TK-10, > 75.5 µM (inactive).
